Experimental data reported in US7511119B2, “PRAME peptide analogues” (MannKind Corporation, priority 2005, dated 2009).
Ends that are not written are not given here.

How the values were obtained:
[1] = test system: target cells coated with wild-type peptide; assay: In vivo cytotoxicity against wild-type NY-ESO-1 peptide-coated target cells; parameters: species or system HHD mice; details: plasmid entrain, peptide amplify; FIGS. 15-16
Procedure: (§1) These cells were then stained with CFSE^hi and CFSE^med fluorescence (4.0 μM or 1 μM, respectively, for 15 minutes) and intravenously co-injected into immunized mice with an equal number of control splenocytes stained with CFSE^lo fluorescence (0.4 μM). Eighteen hours later the specific elimination of target cells was measured by removing the spleens and PBMC from challenged animals and measuring CFSE fluorescence by flow cytometry. The relative depletion of the populations corresponding to peptide loaded splenocytes was calculated relative to the control (unloaded) population and expressed as % specific lysis.

[2] = test system: T cells specific for the wild-type NY-ESO-1157-165 epitope; assay: Cross-reactivity and functional avidity of NY-ESO-1 157-165 analogs (IFN-gamma production ex vivo); type: cell-based, HHD transgenic mice; details: relative to wild-type peptide; FIG. 13
HLA-A*0201 = HLA-A*0201 (Homo sapiens, UniProt P04439, D140Y/D185E/D98H/E176V/E277Q/G131W/G231S/I119V/I121R/I166T/I218V/L300P/L318F/N151K/N90K/P208A/P217A/Q86G/Q94H/R138H/R169H/T345S); assay: Peptide binding using T2 cells; details: half maximal binding of wild-type peptide relative to analog;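 note: Read-out is peptide-induced stabilization of HLA-A*0201 on the cell surface, reflecting mainly Kon at limiting peptide levels and both Kon and Koff at saturating levels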
Excerpt: Thus, at limiting concentrations of peptide, it is a measurement of Kon mostly and at saturation levels of peptide it is a measurement of both Kon and Koff.
Thus, at limiting concentrations of peptide, this is a measurement of Kon mostly and at saturation levels of peptide that is a measurement of both Kon and Koff.

[3] = test system: T cell lines against natural epitope SSX-241-49; assay: Cross-reactivity and functional avidity: IFN-gamma production by T cell lines raised against natural SSX-2 41-49; type: cell-based, HHD transgenic mice; details: T cells raised to native peptide tested on analogs; footnote * and unit not given;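 note: analogs presented ex vivo by competent APCs to T cells specific for the non-mutated epitope, scored by lowest activating concentration, peak cytokine effect and concentration at that peak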
624.38 melanoma cells = assay: Ex vivo cytotoxicity against human tumor cells after boost with SSX-2 analogs; type: in vivo; details: plasmid prime, peptide boost; FIG. 12
Procedure: Eight groups of mice (n=4) were immunized with plasmid expressing SSX-241-49 natural epitope by direct inoculation into the inguinal lymph nodes with 25 ug in 25 ul of PBS/each lymph node at day 0, 3, 14 and 17. This was followed by two additional peptide boosts (similar amount) at day 28 and 31, using a negative control peptide (Melan A 26-35 “EAA”), natural peptide or analogs as shown in FIG. 9.

[4] = test system: native PSMA288-297 peptide; assay: Cross-reactive immunogenicity of PSMA analogs, IFN-gamma ELISPOT; type: in vivo, HHD transgenic mice; details: peptide plus pI:C intranodal; FIG. 22
Procedure: Groups of HHD transgenic mice (n=8) were immunized with peptide (natural epitope PSMA288-297, or analogs bearing substitutions at primary or secondary anchor residues) by direct inoculation into the inguinal lymph nodes, with 25 μg in 25 μl of PBS+12.5 μg of pI:C to each lymph node at day 0, 3, 14 and 17.
Mice were sacrificed at 10 days after the last boost, and splenocytes prepared and assessed for IFN-γ production by ELISPOT analysis. […] At 48 hours after incubation, the assay was developed and the frequency of cytokine-producing T cells that recognized native PSMA288-297 peptide was automatically counted. The data is represented in FIG. 22 as the number of spot forming colonies/well (mean of triplicates±SD). […] To the extent that the poor immunogenicity of the native epitope reflects tolerance, the improved activity of these analogs represents tolerance breaking.

splenocytes = assay: Ex vivo IFN-gamma production after re-stimulation with wild-type NY-ESO-1157-165 (ELISA); type: in vivo, mice; details: 10 μM wild-type peptide, 3 and 6 days; FIG. 17
Excerpt: Supernatants were harvested and the concentration of IFN-γ measured by ELISA.

[5] = test system: target cells coated with natural peptide; assay: In vivo cytotoxicity against splenocytes coated with natural SSX-2 41-49 peptide (CFSE); parameters: species or system HHD mice; details: spleen and blood; targets coated with 20 μg/ml and 1 μg/ml natural peptide
Procedure: Eight groups of mice (n=4) were immunized with plasmid expressing SSX-241-49 natural epitope, by direct inoculation into the inguinal lymph nodes with 25 μg in 25 μl of PBS/each lymph node at day 0, 3, 14 and 17. This was followed by two additional peptide boosts (similar amount) at day 28 and 31, using a negative control peptide (Melan A 26-35 “EAA”), natural peptide or analogs as shown in FIG. 9.
as §1, with “To evaluate the in vivo response against natural peptide, splenocytes were isolated from littermate control HHD mice and incubated with 20 μg/mL or 1 μg/ml of natural peptide for 2 hours. These” for “These”, “CFSE^hi” for “CFSE^hi and CFSE^med”, “[…]” for “1 μM, respectively,”, “spleen” for “the spleens”, “lysis. FIG. 10 (spleen) and 11 (blood) show the in vivo cytotoxicity elicited by the regimens described in FIG. 7.” for “lysis.”

HLA-A*0201 on T2 cells = molecular target: T1, HLA-A*0201 on T2 cells (human); assay: T2 cells, wild-type/analog half-maximal binding
T1 construct: whole, on cells; Class I MHC on the surface of T2 cells, detected with a fluorescent anti-A2 antibody; beta2-microglobulin is not mentioned for this assay; also called MHC class I (A2 allele)

Molecule: SLLMWITQC [Nyeso-1 157-165, reference compound]
- in vivo cytotoxicity (% specific lysis), in words [1]: variable cytotoxicity

Molecule: L158V: NY-ESO-1 157-165 analog with L158V substitution (SVLMWITQC; UniProt P78358 157-165, looked up, variant L158V) [Peptide L158V]
- activity in cross-reactivity assay (NY-ESO-1 157-165 specific T cells), in words [2]: partial retention of activity

Molecule: CC[C@H](C)[C@H](NC(=O)[C@H](Cc1ccc(O)cc1)NC(=O)[C@H](Cc1ccccc1)NC(=O)[C@@H](NC(=O)[C@H](CCCCN)NC(=O)[C@H](CCC(=O)O)NC(=O)[C@H](CO)NC(=O)[C@@H](NC(=O)[C@@H](N)Cc1ccccc1)C(C)C)[C@@H](C)CC)C(=O)O [SSX2 41-49 (K41F, A42V, V49I)]
- Relative affinity (1/RA) (HLA-A*0201): 1.6
- Cross-reactivity and fct avidity (native to analogs)* [3]: 0.3
- cytotoxicity against human tumor cells expressing natural SSX-2 41-49 epitope (624.38 melanoma cells): increased cytotoxicity

Molecule: S157K L158V C165V: NY-ESO-1 157-165 analog with S157K, L158V and C165V substitutions (KVLMWITQV; UniProt P78358 157-165, looked up, variant S157K L158V C165V)
- in vivo cytotoxicity (% specific lysis), in words [1]: effect in the same range with wild-type peptide

Molecule: {Abu}LPSIPVHPI (XLPSIPVHPI; Abu at position 288; T cell peptide epitope analog) [Peptide G288Abu, PSMA288-297 analog with G288Abu substitution]
- priming of immune response against native PSMA288-297 (IFN-γ ELISPOT), in words [4]: slightly higher (but significant) activity

Molecule: L158V C165V: NY-ESO-1 157-165 analog with L158V and C165V substitutions (SVLMWITQV; UniProt P78358 157-165, looked up, variant L158V C165V)
- IFN-gamma production upon ex vivo re-stimulation with wild-type peptide (splenocytes): increased amounts of IFN-gamma
- in vivo cytotoxicity (% specific lysis), in words [1]: effect in the same range with wild-type peptide

Molecule: FASEKIFYV [SSX2 41-49 (K41F)]
- Relative affinity (1/RA) (HLA-A*0201): 1.5
- Cross-reactivity and fct avidity (native to analogs)* [3]: 0.3
- in vivo cytotoxicity (% specific lysis), in words [5]: increased activity

Molecule: S157F L158V C165V: NY-ESO-1 157-165 analog with S157F, L158V and C165V substitutions (FVLMWITQV; UniProt P78358 157-165, looked up, variant S157F L158V C165V)
- IFN-gamma production upon ex vivo re-stimulation with wild-type peptide (splenocytes): increased amounts of IFN-gamma

Molecule: YASEKIFYV-OH [SSX2 41-49 (K41Y)]
- Relative affinity (1/RA) (HLA-A*0201): 1.7
- Cross-reactivity and fct avidity (native to analogs)* [3]: 3
- in vivo cytotoxicity (% specific lysis), in words [5]: increased activity

Molecule: NY-ESO-1157-166: 10-mer of the wild-type sequence NY-ESO-1 157-166 (SLLMWITQCF; UniProt P78358 157-166, looked up, fragment) [reference compound]
- activity in cross-reactivity assay (NY-ESO-1 157-165 specific T cells), in words [2]: no immunological activity

Molecule: S157Y L158I C165V: NY-ESO-1 157-165 analog with S157Y, L158I and C165V substitutions (YILMWITQV; UniProt P78358 157-165, looked up, variant S157Y L158I C165V)
- activity in cross-reactivity assay (NY-ESO-1 157-165 specific T cells), in words [2]: increased activity relative to the wild-type peptide

Molecule: GLWSIPVHPI [Peptide P290W]
- priming of immune response against native PSMA288-297 (IFN-γ ELISPOT), in words [4]: increased priming

Molecule: KISEKIFYV [SSX2 41-49 (A42I)]
- Relative affinity (1/RA) (HLA-A*0201 on T2 cells): 1.7 1/RA

Molecule: KMSEKIFYV [SSX2 41-49 (A42M)]
- Relative affinity (1/RA) (HLA-A*0201 on T2 cells): 1.7 1/RA
